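Exposure lasted 48 hours, with cells grown in 96-well plates and compounds tested at five concentrations. GI50: concentration for 50% inhibition of growth.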 Active and inactive are the calls of the source. Rule as the data show it: active = GI50 up to about 1.1 µM and inactive = higher.
How the values were obtained:
Assay in all cases: NCI anticancer screen, dose series, 48 h
EKVX = test system: EKVX
MCF7 = test system: MCF7
MOLT-4 = test system: MOLT-4
PC-3 = test system: PC-3
SNB-75 = test system: SNB-75
COLO 205 = test system: COLO 205
SW-620 = test system: SW-620
MDA-N = test system: MDA-N
IGROV-1 = test system: IGROV-1
SNB-19 = test system: SNB-19
SK-MEL-5 = test system: SK-MEL-5
OVCAR-4 = test system: OVCAR-4
MDA-MB-435 = test system: MDA-MB-435
CCRF-CEM = test system: CCRF-CEM
Malme-3M = test system: Malme-3M
CAKI-1 = test system: CAKI-1
RPMI-8226 = test system: RPMI-8226
HL-60 = test system: HL-60
HCT-116 = test system: HCT-116
TK-10 = test system: TK-10
SK-OV-3 = test system: SK-OV-3
HOP-62 = test system: HOP-62
UO-31 = test system: UO-31
HT-29 = test system: HT-29
M14 = test system: M14
UACC-62 = test system: UACC-62
SF-268 = test system: SF-268
NCI-H460 = test system: NCI-H460
A549 = test system: A549
Hs-578T = test system: Hs-578T
NCI/ADR-RES = test system: NCI/ADR-RES
RXF 393 = test system: RXF 393
T47D = test system: T47D
786-0 = test system: 786-0
SF-539 = test system: SF-539
LOX IMVI = test system: LOX IMVI
ACHN = test system: ACHN
A498 = test system: A498
SR = test system: SR
KM12 = test system: KM12
NCI-H23 = test system: NCI-H23
OVCAR-3 = test system: OVCAR-3
MDA-MB-231 = test system: MDA-MB-231
SK-MEL-28 = test system: SK-MEL-28
U-251 = test system: U-251
DU-145 = test system: DU-145
NCI-H522 = test system: NCI-H522
SK-MEL-2 = test system: SK-MEL-2
BT-549 = test system: BT-549
NCI-H226 = test system: NCI-H226
HOP-92 = test system: HOP-92
K562 = test system: K562
OVCAR-5 = test system: OVCAR-5
HCT-15 = test system: HCT-15
SN12C = test system: SN12C
UACC-257 = test system: UACC-257
HCC 2998 = test system: HCC 2998
OVCAR-8 = test system: OVCAR-8
SF-295 = test system: SF-295

With `CN(C)/C=N/CC(O)c1ccccc1` (configuration not stated) the GI50 (EKVX) was > 100 µM (inactive), the GI50 (MCF7) was > 100 µM (inactive) and the GI50 (MOLT-4) was > 100 µM (inactive). The GI50 (PC-3) was > 100 µM (inactive), the GI50 (SNB-75) was > 100 µM (inactive) and the GI50 (COLO 205) was > 100 µM (inactive). The GI50 (SW-620) was > 100 µM (inactive), the GI50 (MDA-N) was > 100 µM (inactive) and the GI50 (IGROV-1) was > 100 µM (inactive). For the same molecule, the GI50 (SNB-19) was > 100 µM (inactive), the GI50 (SK-MEL-5) was > 100 µM (inactive) and the GI50 (OVCAR-4) was > 100 µM (inactive). For the same molecule, the GI50 (MDA-MB-435) was > 100 µM (inactive), the GI50 (CCRF-CEM) was > 100 µM (inactive) and the GI50 (Malme-3M) was > 100 µM (inactive). For the same molecule, the GI50 (CAKI-1) was > 100 µM (inactive), the GI50 (RPMI-8226) was > 100 µM (inactive) and the GI50 (HL-60) was > 100 µM (inactive). For the same molecule, the GI50 (HCT-116) was > 100 µM (inactive), the GI50 (TK-10) was > 100 µM (inactive) and the GI50 (SK-OV-3) was > 100 µM (inactive). For the same molecule, the GI50 (HOP-62) was > 100 µM (inactive), the GI50 (UO-31) was > 100 µM (inactive) and the GI50 (HT-29) was > 100 µM (inactive). For the same molecule, the GI50 (M14) was > 100 µM (inactive), the GI50 (UACC-62) was > 100 µM (inactive) and the GI50 (SF-268) was > 100 µM (inactive). The GI50 (NCI-H460) was > 100 µM (inactive), the GI50 (A549) was > 100 µM (inactive) and the GI50 (Hs-578T) was 28.5 µM (inactive). The GI50 (NCI/ADR-RES) was > 100 µM (inactive), the GI50 (RXF 393) was > 100 µM (inactive) and the GI50 (T47D) was > 100 µM (inactive). The GI50 (786-0) was > 100 µM (inactive), the GI50 (SF-539) was > 100 µM (inactive) and the GI50 (LOX IMVI) was > 100 µM (inactive). The GI50 (ACHN) was > 100 µM (inactive), the GI50 (A498) was > 100 µM (inactive) and the GI50 (SR) was > 100 µM (inactive). For the same molecule, the GI50 (KM12) was > 100 µM (inactive), the GI50 (NCI-H23) was > 100 µM (inactive) and the GI50 (OVCAR-3) was > 100 µM (inactive). The GI50 (MDA-MB-231) was > 100 µM (inactive), the GI50 (SK-MEL-28) was > 100 µM (inactive) and the GI50 (U-251) was > 10 µM (inactive). The GI50 (DU-145) was > 100 µM (inactive), the GI50 (NCI-H522) was > 100 µM (inactive) and the GI50 (SK-MEL-2) was > 100 µM (inactive). The GI50 (BT-549) was > 100 µM (inactive), the GI50 (NCI-H226) was > 100 µM (inactive) and the GI50 (HOP-92) was > 100 µM (inactive). For the same molecule, the GI50 (K562) was > 100 µM (inactive), the GI50 (OVCAR-5) was > 100 µM (inactive) and the GI50 (HCT-15) was over 100 µM. For the same molecule, the GI50 (SN12C) was > 100 µM (inactive).
`CSc1c(C#N)c(N)n(-c2ccc(C)cc2)c(=O)c1C#N` was tested, and the GI50 (EKVX) was > 100 µM (inactive), the GI50 (MCF7) was > 100 µM (inactive) and the GI50 (MOLT-4) was > 100 µM (inactive). The GI50 (PC-3) was > 100 µM (inactive), the GI50 (SNB-75) was > 100 µM (inactive) and the GI50 (COLO 205) was > 100 µM (inactive). The GI50 (SW-620) was > 100 µM (inactive), the GI50 (MDA-N) was > 100 µM (inactive) and the GI50 (IGROV-1) was > 100 µM (inactive). The GI50 (SNB-19) was > 100 µM (inactive), the GI50 (SK-MEL-5) was > 100 µM (inactive) and the GI50 (OVCAR-4) was > 100 µM (inactive). The GI50 (MDA-MB-435) was > 100 µM (inactive), the GI50 (CCRF-CEM) was 94.8 µM (inactive) and the GI50 (Malme-3M) was > 100 µM (inactive). The GI50 (CAKI-1) was > 100 µM (inactive), the GI50 (RPMI-8226) was > 100 µM (inactive) and the GI50 (HL-60) was > 100 µM (inactive). The GI50 (HCT-116) was > 100 µM (inactive), the GI50 (TK-10) was > 100 µM (inactive) and the GI50 (SK-OV-3) was > 100 µM (inactive). For the same molecule, the GI50 (UO-31) was 50.4 µM (inactive), the GI50 (HT-29) was > 100 µM (inactive) and the GI50 (M14) was > 100 µM (inactive). For the same molecule, the GI50 (UACC-257) was > 100 µM (inactive), the GI50 (UACC-62) was > 100 µM (inactive) and the GI50 (SF-268) was > 100 µM (inactive). For the same molecule, the GI50 (NCI-H460) was > 100 µM (inactive), the GI50 (A549) was > 100 µM (inactive) and the GI50 (Hs-578T) was > 100 µM (inactive). For the same molecule, the GI50 (NCI/ADR-RES) was > 100 µM (inactive), the GI50 (RXF 393) was > 100 µM (inactive) and the GI50 (T47D) was > 100 µM (inactive). The GI50 (786-0) was > 100 µM (inactive), the GI50 (SF-539) was > 100 µM (inactive) and the GI50 (LOX IMVI) was 88.9 µM (inactive). For the same molecule, the GI50 (HCC 2998) was > 100 µM (inactive), the GI50 (A498) was 50.8 µM (inactive) and the GI50 (SR) was > 100 µM (inactive). The GI50 (KM12) was > 100 µM (inactive), the GI50 (NCI-H23) was > 100 µM (inactive) and the GI50 (OVCAR-3) was > 100 µM (inactive). For the same molecule, the GI50 (MDA-MB-231) was > 100 µM (inactive), the GI50 (SK-MEL-28) was > 100 µM (inactive) and the GI50 (U-251) was > 100 µM (inactive). For the same molecule, the GI50 (DU-145) was > 100 µM (inactive), the GI50 (NCI-H522) was 98.9 µM (inactive) and the GI50 (SK-MEL-2) was > 100 µM (inactive). The GI50 (BT-549) was > 100 µM (inactive), the GI50 (NCI-H226) was 70 µM (inactive) and the GI50 (K562) was > 100 µM (inactive). For the same molecule, the GI50 (OVCAR-5) was > 100 µM (inactive), the GI50 (HCT-15) was over 100 µM and the GI50 (OVCAR-8) was > 100 µM (inactive). For the same molecule, the GI50 (SN12C) was > 100 µM (inactive).
In the case of `COc1ccc2c(=O)cc(-c3ccncc3)oc2c1OC`, the GI50 (EKVX) is reported as 28.2 µM (inactive), the GI50 (MCF7) is reported as 35.7 µM (inactive) and the GI50 (MOLT-4) is reported as 7.57 µM (inactive). For the same molecule, the GI50 (PC-3) was 23.8 µM (inactive), the GI50 (SNB-75) was 18.2 µM (inactive) and the GI50 (SF-295) was 20.9 µM (inactive). The GI50 (COLO 205) was 15 µM (inactive), the GI50 (SW-620) was 31.6 µM (inactive) and the GI50 (MDA-N) was 29.2 µM (inactive). The GI50 (IGROV-1) was 20.8 µM (inactive), the GI50 (SNB-19) was 31.4 µM (inactive) and the GI50 (SK-MEL-5) was 17.5 µM (inactive). For the same molecule, the GI50 (OVCAR-4) was 46.1 µM (inactive), the GI50 (MDA-MB-435) was 31.6 µM (inactive) and the GI50 (CCRF-CEM) was 29.1 µM (inactive). The GI50 (Malme-3M) was 30.4 µM (inactive), the GI50 (CAKI-1) was 36.1 µM (inactive) and the GI50 (RPMI-8226) was 32.2 µM (inactive). For the same molecule, the GI50 (HL-60) was 19.5 µM (inactive), the GI50 (HCT-116) was 24.2 µM (inactive) and the GI50 (TK-10) was 28.1 µM (inactive). For the same molecule, the GI50 (SK-OV-3) was 41 µM (inactive), the GI50 (HOP-62) was 30.8 µM (inactive) and the GI50 (UO-31) was 19.7 µM (inactive). The GI50 (HT-29) was 28.6 µM (inactive), the GI50 (M14) was 19.8 µM (inactive) and the GI50 (UACC-257) was 33 µM (inactive). For the same molecule, the GI50 (UACC-62) was 14 µM (inactive), the GI50 (SF-268) was 21.8 µM (inactive) and the GI50 (NCI-H460) was 20.7 µM (inactive). For the same molecule, the GI50 (A549) was 33.1 µM (inactive), the GI50 (Hs-578T) was 15.7 µM (inactive) and the GI50 (NCI/ADR-RES) was 34 µM (inactive). For the same molecule, the GI50 (RXF 393) was 24.9 µM (inactive), the GI50 (T47D) was 48.8 µM (inactive) and the GI50 (786-0) was 27.9 µM (inactive). The GI50 (LOX IMVI) was 21 µM (inactive), the GI50 (HCC 2998) was 25.3 µM (inactive) and the GI50 (ACHN) was 25.7 µM (inactive). The GI50 (A498) was 14.7 µM (inactive), the GI50 (SR) was 6.67 µM (inactive) and the GI50 (KM12) was 26.4 µM (inactive). For the same molecule, the GI50 (NCI-H23) was 24.6 µM (inactive), the GI50 (OVCAR-3) was 17.5 µM (inactive) and the GI50 (MDA-MB-231) was 31.8 µM (inactive). The GI50 (SK-MEL-28) was 26.5 µM (inactive), the GI50 (U-251) was 30.1 µM (inactive) and the GI50 (DU-145) was 24.7 µM (inactive). The GI50 (NCI-H522) was 24.6 µM (inactive), the GI50 (SK-MEL-2) was 25.3 µM (inactive) and the GI50 (BT-549) was 26 µM (inactive). The GI50 (HOP-92) was 17.7 µM (inactive), the GI50 (K562) was 38.3 µM (inactive) and the GI50 (OVCAR-5) was 24.6 µM (inactive). The GI50 (HCT-15) was 28.5 µM, the GI50 (OVCAR-8) was 24.9 µM (inactive) and the GI50 (SN12C) was 29.6 µM (inactive).

— ChEMBL document CHEMBL1201862, “PubChem BioAssay data set” (2004)
